{
  "source": "patent EP2558096B1",
  "about": "“COMBINATION OF HYPOXIA-INDUCIBLE FACTOR-1 INHIBITORS AND TOLL-LIKE RECEPTOR-3 AGONISTS FOR TREATING SOLID TUMORS” (Università degli Studi di Roma \"La Sapienza\", priority 2010, dated 2011)",
  "test_system": "HIF-1α",
  "assay": "Western blot of HIF-1α protein in PC3 cells (whole cell and nuclear extracts)",
  "type": "cell-based, human",
  "method": "LNCaP and PC3 prostate cancer cells were purchased from ATCC and were grown in DME medium supplemented with 2 mM L-glutamine, 100 IU/ml penicillin-streptomycin and 10% FCS (Sigma-Aldrich, St Louis, MO). For all the experiments, prostate cancer cell lines were serum starved for 18 h and then stimulated with poly(I:C) (InvivoGen, San Diego) in FCS-free medium. Human Umbilical Vein Endothelial Cells (HUVEC) were maintained in EGM®-2 complete medium (Lonza, Basel, Switzerland). Actinomycin D, cycloheximide and CoCl2 were from Sigma. MG-132 was from Calbiochem-Merk (Damstadt, Germany).\nCell lysates were prepared in cell lysis buffer (Cell Signaling, Danvers, MA). Equal amounts of proteins (40 µg) were subjected to SDS-polyacrylamide gel electrophoresis and transferred onto a nitrocellulose membrane saturated with 5% non-fat dry milk in Tris-buffered saline with 0.1% Tween-20 (T-TBS). Membranes were incubated with primary antibody and subsequently with horseradish peroxidase-conjugated (HRP) secondary antibody for 1 h at room temperature. Membranes were washed with T-TBS and developed using the chemiluminescence system (ECL; Amersham Bioscience, Piscataway, NJ). Antibody anti-HIF-1α was from BD biosciences (San Diego, CA), cleaved caspase-3 (Asp175) from Cell Signalling (Danvers, MA) and anti-β actin from Sigma. Secondary antibodies were HRP-conjugated goat anti-mouse or anti-rabbit (Bio-Rad, Hercules, CA). To perform Western blot of nuclear extracts, cells were washed in ice-cold PBS, scraped and collected in buffer A (10 mM Tris, pH 7.8, 1.5 Mm MgC12, and 10 mM KCl), and kept on ice for 10 min. before Dounce homogenization. Nuclei were then pelleted at 1000 g for 7 min. at 4°C, re-suspended in 150 µl ice-cold lysis buffer and incubated for 30 min. on ice in the presence of proteases inhibitor cocktail (Sigma) then stored at -80°C. Protein concentration was determined by the micro bicinchoninic acid (BCA) method (Pierce, Rockford, IL).\nOne day after plating (1 x 10^5 cells/ml), cells were transiently transfected with 1 µg of a plasmid encoding 1.3 isoform of hif-1α [6] or relative control plasmid (pcDNA3) or with 1 µg of a plasmid containing an interfering sequence targeting hif-1α (int.HIF-1α) or the relative control (int. scramble) previously described. Cells were transfected for 5 h with lipofectamine LTX/plus (Invitrogen, Carlsbad, CA) according to the manufacturer's protocol. Challenge with poly(I:C) was performed 18 h later.\nTo obtain stably transfected PC3 cells with non-functional TLR3, cells were transfected with 1 µg TLR3-dominant negative plasmid (TLR3-DN) (pZERO-hTLR3, Invivogen) or with 1 µg plasmid containing only the resistance to puromycin (pPURO), using lipofectamine LTX/plus as described above. 48 h later, the cells were trypsinized, and seeded at different dilutions onto 100-mm plates in complete DMEM supplemented with 2 µg/ml puromycin (Invivogen). After incubation at 37°C for 2 to 3 weeks, individual colonies were isolated using sterile cloning rings, trypsinized and plated onto 12-well plates. The clones obtained were expanded and maintained in DMEM supplemented with 2 µg/ml puromycin.",
  "note": "Like-named read-outs stand apart in the source and are kept apart here. *1 amine or outer side, *2 acyl side, *3 side chain or, on linkers, in order; H or OH if unused. Where a SMILES comes first, the peptide text is derived from it. Bridges are numbered along the chain shown (N, C = ends). Roman numbers before positions name the chains, in order. [ ]: non-standard residue; d: D form. The star is where a group is joined. Actinocin(9to1) = Cc1c2oc3c(C)ccc(C(=O)[*:1])c3nc-2c(C(=O)[*:2])c(N)c1=O; NMeV = CN[C@H](C(=O)O)C(C)C; Cbz = O=C(OCc1ccccc1)*; Sar = CNCC(=O)O",
  "data": [
    {"smiles": "Cc1c2oc3c(C)ccc(C(=O)N[C@@H]4C(=O)N[C@H](C(C)C)C(=O)N5CCC[C@H]5C(=O)N(C)CC(=O)N(C)[C@@H](C(C)C)C(=O)O[C@@H]4C)c3nc-2c(C(=O)N[C@@H]2C(=O)N[C@H](C(C)C)C(=O)N3CCC[C@H]3C(=O)N(C)CC(=O)N(C)[C@@H](C(C)C)C(=O)O[C@@H]2C)c(N)c1=O", "note": "[Act D, actinomycin D] (I: T[dV]P[Sar][NMeV] / II: T[dV]P[Sar][NMeV]; ester I:1-I:C, II:1-II:C; linker I:N-II:N via Actinocin(9to1))", "values": [
      {"measurement": "effect on HIF-1α protein accumulation in cells treated with CoCl2", "setting": "PC3 cells, 100 µM CoCl2 3 h, Fig. 2B upper", "result": "did not inhibit"},
      {"measurement": "effect on poly(I:C)-dependent HIF-1α protein induction", "setting": "PC3 cells, poly(I:C) 5 µg/ml about 6 h, inhibitor for 15 min (CHX 100 µg/ml, Act D 2 µg/ml), Fig. 2B upper", "result": "completely abolished"}
    ]},
    {"smiles": "C[C@@H]1C[C@@H]([C@H](O)CC2CC(=O)NC(=O)C2)C(=O)[C@@H](C)C1", "note": "[CHX, cycloheximide]", "values": [
      {"measurement": "effect on HIF-1α increase by CoCl2 combined with MG-132", "result": "not significantly inhibited"},
      {"measurement": "effect on HIF-1α increase by poly(I:C) in MG-132-treated cells", "result": "reverted the increase to the level of MG-132 alone"},
      {"measurement": "effect on HIF-1α protein accumulation in cells treated with CoCl2", "result": "did not inhibit"},
      {"measurement": "effect on poly(I:C)-dependent HIF-1α protein induction", "result": "completely abolished"}
    ]},
    {"smiles": "CC(C)C[C@@H](C=O)NC(=O)[C@H](CC(C)C)NC(=O)[C@H](CC(C)C)NC(=O)OCc1ccccc1", "note": "[MG-132] (Cbz-Leu-Leu-Leu-aldehyde)", "values": [
      {"measurement": "level of HIF-1α in the absence of poly(I:C)", "setting": "PC3 cells, 5 µg/ml MG-132, 3 h, Fig. 2B lower", "result": "induced an increase"},
      {"measurement": "HIF-1α compared to CoCl2 alone", "setting": "PC3 cells, CoCl2 combined with MG-132, Fig. 2B lower", "result": "greater increment"}
    ]}
  ]
}
